The values below come from patent US9725416B2, “Ethynyl derivatives” (Hoffmann-La Roche Inc., priority 2014, dated 2017).

As a reminder, the EC50 is the midpoint of the concentration-response curve.

Assay [1] has as its system mice. Conditions: reported by Addex 2010; cited from earlier work.
The subject of assay [2] is mice. The note with it: reported by Addex 2010; cited from earlier work. The source holds these as a separate data set.
The test system of assay [3] is rats. Conditions: cited from earlier work.
In assay [4] the test system is mice treated with MPTP. The note with it: cited from earlier work.
Assay [5] deals with T1, human mGlu4 receptor (Homo sapiens, UniProt Q14833).
T1 construct: expressed in transfected cells; host or cells: HEK-293 (monoclonal, stably transfected)
T1 sequence (Q14833 33-912): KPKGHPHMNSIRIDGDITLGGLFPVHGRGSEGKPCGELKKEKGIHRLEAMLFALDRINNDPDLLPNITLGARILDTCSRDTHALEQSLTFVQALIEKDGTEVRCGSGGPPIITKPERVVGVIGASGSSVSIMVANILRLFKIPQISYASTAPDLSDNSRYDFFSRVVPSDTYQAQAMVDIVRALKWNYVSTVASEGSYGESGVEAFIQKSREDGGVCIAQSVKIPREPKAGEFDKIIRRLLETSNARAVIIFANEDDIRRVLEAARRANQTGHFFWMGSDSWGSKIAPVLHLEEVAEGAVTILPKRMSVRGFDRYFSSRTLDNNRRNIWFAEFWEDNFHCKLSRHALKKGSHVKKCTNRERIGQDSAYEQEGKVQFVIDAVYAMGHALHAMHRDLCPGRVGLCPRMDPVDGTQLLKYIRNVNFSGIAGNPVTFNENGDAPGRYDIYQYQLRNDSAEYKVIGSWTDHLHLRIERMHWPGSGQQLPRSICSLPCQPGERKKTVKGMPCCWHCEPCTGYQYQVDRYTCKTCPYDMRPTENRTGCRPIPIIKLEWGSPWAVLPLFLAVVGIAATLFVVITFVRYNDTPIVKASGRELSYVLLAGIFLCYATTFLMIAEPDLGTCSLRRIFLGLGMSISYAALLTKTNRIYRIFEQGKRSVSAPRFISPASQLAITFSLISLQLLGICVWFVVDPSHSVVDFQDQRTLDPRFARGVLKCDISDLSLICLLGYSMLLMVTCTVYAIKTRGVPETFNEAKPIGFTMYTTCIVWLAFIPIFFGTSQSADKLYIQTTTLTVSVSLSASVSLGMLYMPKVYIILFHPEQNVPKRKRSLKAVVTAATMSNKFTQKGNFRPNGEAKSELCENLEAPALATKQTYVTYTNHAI
As to the kind of experiment: Ca2+ mobilization in vitro assay on recombinant human mGlu4 expressed in HEK293 cells (mGlu4 PAM). The format is cell-based. The note with it: for Emax: HEK293, maximal response in % of the maximal stimulatory effect obtained with saturating concentrations of L-AP4, read-out: Eff. (%); for EC50: HEK-293 cells, Ca2+ mobilization, L-AP4 added at EC20. Put shortly: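 HEK293 line stably expressing human mGlu4 (low expression, low constitutive activity), Fluo-4AM loaded; compounds (11 half-log dilutions) preincubated 10-30 min at 37 °C, then L-AP4 added at its EC20, determined daily. EC50 from peak fluorescence minus basal, normalized to saturating L-AP4 maximum, four-parameter fit.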

For assay [6], the system named is 6-OHDA rodent model of PD. The note with it: cited from earlier work.

With `Cc1ccnc(Nc2nc(-c3cn[nH]c3)c(C)s2)n1` [ADX88178], the “activity in marble burying test” value in assay [1] is on record as “active”. Also, the “activity in EPM” value in assay [2] was “active”; in assay [3] (rats, reported by Addex 2010), “active”. Moreover, in assay [3] (rat, after oral dosing), the “profile in rat EPM test” value is on record as “anxiolytic-like profile”.

Consider `O=C(Nc1ccccc1)C12CC1/C(=N\O)c1ccccc1O2` (single isomer, unassigned; (-)) [(−)-PHCCC], for which the nigrostriatal degeneration entry in assay [4] is reported as “reduced nigrostriatal degeneration”.

Consider `CN1C(=O)N(c2c(F)cc(C#Cc3ccccc3)cc2F)C(=O)C[C@@]1(C)c1ccc(=O)n(C)n1` [Example 83, (6S)-3-[2,6-Difluoro-4-(2-phenylethynyl)phenyl]-1,6-dimethyl-6-(1-methyl-6-oxo-pyridazin-3-yl)hexahydropyrimidine-2,4-dione], for which, in assay [5], the Emax was found to be 116% and the half-maximal effective concentration (EC50) amounted to 42 nM.

`Cc1nccc([C@]2(C)CC(=O)N(c3c(F)cc(C#Cc4ccccc4)cc3F)C(=O)N2C)n1` [Example 76, (6S)-3-[2,6-Difluoro-4-(2-phenylethynyl)phenyl]-1,6-dimethyl-6-(2-methylpyrimidin-4-yl)hexahydropyrimidine-2,4-dione]: in assay [5], the Emax is 111% and the EC50 worked out at 103 nM.

On to `CC12CC(=O)N(c3c(F)cc(C#Cc4ccccc4)cc3F)C(=O)N1CCNC2=O` (racemic) [Example 25, (9aRS)-7-[2,6-Difluoro-4-(2-phenylethynyl)phenyl]-9a-methyl-2,3,4,9-tetrahydropyrazino[1,2-c]pyrimidine-1,6,8-trione], for which, in assay [5], the Emax was 105% and the EC50 came to 83 nM.

As for `CN1C(=O)N(c2c(F)cc(C#Cc3ccccc3)cc2F)C(=O)CC12CCOC2` (racemic) [Example 12, (5RS)-8-[2,6-Difluoro-4-(2-phenylethynyl)phenyl]-6-methyl-2-oxa-6,8-diazaspiro[4.5]decane-7,9-dione], in assay [5], the Emax came to 115% and the EC50 is 260 nM.

As to `CCN1C(=O)N(c2c(F)cc(C#Cc3ccccc3)cc2F)C(=O)C[C@@]1(C)c1cccnc1` [Example 52, (6S)-3-[2,6-Difluoro-4-(2-phenylethynyl)phenyl]-1-ethyl-6-methyl-6-(3-pyridyl)hexahydropyrimidine-2,4-dione], in assay [5], the Emax amounted to 99% and the EC50 amounted to 48 nM.

For the molecule `CN1C(=O)N(c2c(F)cc(C#Cc3cccnc3)cc2F)C(=O)C[C@@]1(C)c1ccnc(Cl)c1` [Example 64, (6S)-6-(2-Chloro-4-pyridyl)-3-[2,6-difluoro-4-[2-(3-pyridyl)ethynyl]phenyl]-1,6-dimethyl-hexahydropyrimidine-2,4-dione], in assay [5], the Emax was 119% and the concentration giving a half-maximal response (EC50) was 124 nM.

For `N[C@@H](CCP(=O)(O)O)C(=O)O` [L-AP4, (2S)-2-amino-4-phosphonobutanoic acid], the neuroprotection entry in assay [6] is reported as “neuroprotective effects”.
